# Values of other authors in patent US10427251B2, “Fine silver particle dispersion, fine silver particles, and method for producing same” (BANDO CHEMICAL INDUSTRIES, LTD., priority 2014, dated 2019).
# Details: n-octanol/water
row,Compound,partition coefficient log P
1,CCN [ethylamine],−0.3
2,CCCCCCN [hexylamine],2.1
3,COCCN [2-methoxyethylamine],−0.9
4,"NCCCN [1,3-propanediamine]",−1.4
5,NCCCCCO [pentanolamine],−0.3
6,CCCN [propylamine],0.5

# Further lines, results first:
row,partition coefficient log P,Compound
1,1.0,CCCCN [butylamine]
2,−0.5,COCCCN [3-methoxypropylamine]
3,−0.1,CCOCCCN [3-ethoxypropylamine]
